Test results published in US8986712B2, “Peptides derived from HIV-1 gp41 transmembrane domain for t-immunomodulation” (Yeda Research and Development Co., Ltd., priority 2009, dated 2015).
Ends that are not written are not given here.

Key:
TCRα CP peptide = biological target: T1, TCRα CP peptide (Mus musculus, UniProt P01849); test: FRET between TCRα CP-NBD and Rho labeled peptides in PC LUV; type: binding; conditions: acceptor-to-lipid ratio of 1:1000
T1 construct: TCRα CP peptide was labeled with NBD, as a donor fluorophore; made in house; host or cells: chemical synthesis (Fmoc solid phase, Rink amide resin)
Protocol: (§1) Thin films of PC were generated after dissolving the lipids in a 2:1 (v/v) mixture of CHCL3/MeOH and drying them under a stream of nitrogen gas while rotating them. The films were lyophilized overnight, sealed with argon gas to prevent oxidation of the lipids, and stored at −20° C. Before the experiments, films were suspended in the appropriate buffer and vortexed for 1.5 min. The lipid suspension underwent five cycles of freezing-thawing and extrusion through polycarbonate membranes with 1- and 0.1-μm diameter pores to create large unilamellar vesicles.
(§2) The FRET experiments were performed by using NBD and Rho labeled peptides. Fluorescence spectra were obtained at room temperature, with excitation set at 467 nm (10-nm slit) and emission scan at 500-600 nm (10-nm slits). […] Fluorescence spectra were obtained before and after addition of the Rho labeled peptide. The fluorescence values were corrected by subtracting the corresponding blank (buffer with the same vesicles concentration). […]
Further investigations were performed to reveal whether gp41 TMD interacts solely with CD3 or perhaps it interacts with the TCRα TMD. […] Then, the fluorescence energy transfer (FRET) was measured between fluorescently labeled TCRα CP-NBD peptide and gp41 TM-Rho, TCRα CP-Rho or TAR/PS-Rho. […]

TLR2 TMD = biological target: T2, TLR2 TMD (Homo sapiens, UniProt O60603); test: FRET between NBD labeled peptides and TLR2-Rho in LUVs; type: binding; conditions: 100 μM LUVs; peptide 0.4 μM; TLR2-Rho 0.025-0.8 μM
T2 construct: made in house; host or cells: chemical synthesis (Fmoc solid phase, Rink amide resin)
Protocol: as §1, §2
The energy transfer from the association of the gp41 TMD and the TLR2 TMD peptides was measured in the presence of 100 μM LUVs. […] As a control, the energy transfer between TLR2 and TAR1p/s (MVLGVFALLPLISGSL; SEQ ID NO:39) was measured. […]

[1] = test system: T cells activated by PMA/ionomycin; test: T-cell activation induced by PMA/ionomycin; type: cell-based, mice
Protocol: (§3) For some experiments, T cells were activated with immobilized anti-CD3 antibodies (Kaleeba et al., 1998, Int. Immunol. 10, 453-461) or PMA/ionomycin as described (Wang et al., 2002 Clin. Immunol. 105, 199-207). After 72 hours, at 37° C. in a 7.5% CO2 humidified atmosphere, the T-cells were pulsed with 1 μCi (H^3) thymidine, with a specific activity of 5.0 Ci/mmol, for 7 hours, and (H^3) thymidine incorporation was measured using a 96-well plate beta-counter. The mean cpm±Standard Error was calculated for each triplicate or quadruplicate. The results of T-cell proliferation experiments are shown as the percentage of T-cell proliferation inhibition triggered by the antigen in the absence of gp41 TMD peptides.
PMA/ionomycin activates the T cell downstream of the membrane regardless of the presence or absence of the TCR.

CD3 molecules = test: Co-localization of NBD-labeled peptides with CD3/TCR molecules in T cells (confocal fluorescence microscopy); type: cell-based, mice; conditions: NBD-conjugated peptide 2 μM, 1 h at 37° C., MOG35-55 T-cells
Protocol: Resting MOG35-55 T-cells or after activation for 72 h with MOG35-55 and APC were blocked with 1% BSA at room temperature to block non-specific binding. After 30 min the cells were washed and divided into aliquots containing 100,000 cells per 100 μl, and either gp41 TMD or a control membrane-binding amphipathic peptide (AMP-scr) was added (final concentration of 2 μM) for 1 h at 37° c. The cells were then washed and labeled with the tested antibody for 25 min at RT followed by biotin-conjugated anti-hamster IgG 25 min at RT and Streptavidin PE-Cy-5 10 min at RT (eBioscience San-Diego Calif., USA). Anti-hamster IgG followed by Streptavidin-Cy-5 served as a measure of non-specific binding amphipathic (AMP) peptide served as low TCR affinity control. The cells were analyzed by confocal fluorescence microscopy using Lab-Tek 8 chambers cover-glass (nunc) with living cells. The labeled cell samples were observed under a fluorescence confocal microscope. PE-Cy-5 excitation was done with HeNe laser 633 nm (emission data was collected with filter BA660IF, 660 nm long pass). NBD excitation was done with Ar laser 488 nm (emission data was collected from 505-525 nm). The co-localization percentage was quantified suing the “Simple PCI” software, and calculated as: (Co-localization fluorescence/NBD fluorescence)×100=co-localization percentage. […]

[2] = test system: T-cell line specific to MOG p35-55; test: T-cell proliferation induced by MOG 35-55 peptide and APC (H3-thymidine uptake); type: cell-based, mice; conditions: for cell survival in culture versus PBS control: T cells incubated with peptide
Protocol: T-cells were plated onto round 96-well plates in medium containing RPMI-1640 supplemented with 2.5% fetal calf serum (FCS), 100 U/ml penicillin, 100 μg/ml streptomycin, 50 μM 2β-mercaptoethanol, and 2 mM L-glutamine. 12×10^4 cells of the T-cell line specific to MOG p35-55, 5×10^5 irradiated (3000 rad) spleen cells (APC), and 10 μg/ml of MOG p35-55 were added to each well. In addition, peptides corresponding to the gp41 TMD region were added. Each determination was made at least in triplicate.
In order to exclude interaction between the examined peptides and the MOG p35-55 antigen, the MOG p35-55 antigen was initially added to the APCs in a test tube, and in a second test tube, the examined peptides were added to the T-cells. After 1 hour, the APCs and the T-cells were mixed and incubated for 72 h in a 96 well round bottom plate.
as §3
Lymph node cells were prepared from MOG 35-55/CFA immunized mice and their T cell response to the MOG 35-55 peptide was studied. T-cells were activated with the MOG 35-55 peptide and APC in the presence of gp41 TMD and TM11-19 (GLVGLRIVF; SEQ ID NO: 6) in three different concentrations (5, 25 and 50 μg/ml) and the proliferative responses was assayed. The T cell line proliferative response was determined after 3 days of incubation using a H3-thymidine uptake assay. […] The uninhibited T-cell proliferative responses were 9382±891 cpm.

[3] = test system: T-cells activated with anti-CD3; test: T-cell activation induced by mitogenic anti-CD3 antibodies; type: cell-based, mice; conditions: 1 μg/ml anti-CD3 and APC; 50 μg/ml peptide
Protocol: as §3
Mitogenic anti-CD3 antibodies activate CD3 signaling regardless of the presence or absence of TCR (Keppler et al., 2006, J. Leukoc. Biol. 79, 616-627). Thus, T-cells were activated with 1 μg/ml anti-CD3 and APC in the presence of 50 μg/ml gp41 TMD or gp41 TM11-19, and the proliferative responses were assayed. The TCRα Core Peptide (GLRILLLKV; SEQ ID NO: 37; TCRα CP) served as a control peptide.

[4] = test system: RAW264.7 macrophage cells; test: TNFα secretion from RAW264.7 macrophages (ELISA); type: cell-based; conditions: peptide 20 μM for 2 hours
Protocol: RAW264.7 macrophage cells were plated in a 96 well plate at a concentration of 20,000 cells per well and grown over-night in RPMI medium supplemented with 10% FBS and 1% Pen-Strep and 1% L-glutamine at 37 degrees with 5% CO2. The following day media was changed and the gp41 TMD peptide was added at a concentration of 20 μM—dissolved in DMSO and diluted 1:100. The cells were incubated in the presence of the peptide for 2 hours afterwards the media was removed and cells were washed twice with 100 μl of fresh media. Lipopolysaccharide (LPS) and Lipoteichoic acid (LTA) ligands were added for 5 hours (LPS was added at the concentration of 10 ng/ml and LTA added at 500 ng/ml; cells were grown at this time with 200 μl). After 5 hours 150 were taken for the measurement of TNFα by an ELISA kit.
RAW264.7 macrophages were grown in the presence of gp41 TMD peptides for 2 hours at a concentration of 20 μM. As controls, RAW264.7 macrophages were grown in the presence of GGG peptides or in the absence of peptides (FIG. 10, GGG and Control, respectively). Thereafter, the medium was washed twice and 500 ng/ml of LTA or 10 ng/ml of LPS was added for 5 hours. In order to evaluate TNFα levels an ELISA assay was performed. Results are shown normalized to the level of TNFα secretion induced by the ligands in the absence of peptides (FIG. 10 Control). The result is an average of three measurements.

T2 sequence (O60603 589-609 limits assumed): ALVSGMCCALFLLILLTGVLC

Row | Substance | percent of energy transfer with TLR2-Rho (TLR2 TMD) | inhibition of T cell activation by PMA/ionomycin [1] | cell survival in culture versus PBS control [2] | further results
1 | TCRα CP-Rho: TCRα CP peptide labeled with Rho-TAMRA as an acceptor fluorophore (GLRILLLKV-NH2; also: labeled with Rho-TAMRA, position not given here) |  |  |  | energy transfer from TCRα CP-NBD (TCRα CP peptide): ~37%
2 | MVLGVFALLPLISGSL [TAR1p/s, reference compound] | no energy transfer was detected |  |  | 
3 | GLRILLLKV [TCRα CP, reference compound] |  | did not inhibit |  | 
4 | KKKLFIMIVGGLVGLRIVFAVLSIKKK [gp41 TMD] | over 60% | did not inhibit | same survival in culture | co-localization percentage with the CD3 molecules (CD3 molecules): 58.8%; inhibition of T-cell proliferation ([2]; MOG 35-55 peptide and APC, 5, 25 and 50 μg/ml peptide, 3 days, H3-thymidine uptake): dose dependent inhibition; inhibition of T-cell activation by mitogenic anti-CD3 antibodies [3]: inhibited; TNFα secretion in response to LPS ([4]; then 10 ng/ml LPS for 5 hours): reduces TNFα secretion; TNFα secretion in response to LTA ([4]; then 500 ng/ml LTA for 5 hours): inhibits TNFα secretion
5 | GLVGLRIVF-NH2 [TM11-19, GLVGLRIVF] |  |  | same survival in culture | 
